The values that follow come from patent publication US4857540A, “Dopamine-β-hydroxylase inhibitors” (SmithKline Beckman Corporation, priority 1987, dated 1989).

For orientation: inhibition means the change of the read-out against control, counted positive when it falls.

For data set [1], the target named is T1, dopamine-β-hydroxylase (DBH) (Bos taurus, UniProt P15101).
T1 sequence (P15101 1-610): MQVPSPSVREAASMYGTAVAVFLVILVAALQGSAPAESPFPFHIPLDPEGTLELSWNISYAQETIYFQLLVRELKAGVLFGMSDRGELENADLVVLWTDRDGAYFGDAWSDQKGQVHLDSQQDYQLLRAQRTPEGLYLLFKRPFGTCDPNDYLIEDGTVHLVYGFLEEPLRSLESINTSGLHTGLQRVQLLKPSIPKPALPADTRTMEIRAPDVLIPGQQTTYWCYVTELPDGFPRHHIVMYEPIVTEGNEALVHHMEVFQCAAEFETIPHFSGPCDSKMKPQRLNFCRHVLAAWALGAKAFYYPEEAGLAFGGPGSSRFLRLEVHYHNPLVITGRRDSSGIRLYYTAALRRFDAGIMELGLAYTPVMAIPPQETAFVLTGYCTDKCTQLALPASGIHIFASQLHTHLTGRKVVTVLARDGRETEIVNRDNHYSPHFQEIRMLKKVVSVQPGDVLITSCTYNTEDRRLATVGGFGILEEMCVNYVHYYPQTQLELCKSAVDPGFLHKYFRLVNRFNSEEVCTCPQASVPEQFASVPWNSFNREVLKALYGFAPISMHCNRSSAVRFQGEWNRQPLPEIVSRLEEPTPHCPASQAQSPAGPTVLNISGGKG
Nature of the data set: in vitro DBH inhibition, conversion of tyramine to octopamine (absorbance at 330 nm). It is filed as biochemical. The method, then:
Compounds of the invention and other compounds useful in the method of the invention were screened for in vitro DBH inhibition by a standard procedure for assaying conversion of tyramine to octopamine in the presence of DBH. Octopamine was assayed following sodium periodate oxidation to p-hydroxybenzaldehyde by measuring spectrophotometric absorbance at 330 nm. Inhibition is given in molar concentration of compound at which DBH activity was halved (IC50). Melting points (mp) are given in °C.

The test system of data set [2] is peripheral dopamine (DA) and norepinephrine (NE) levels. As to the kind of experiment: effects in vivo on peripheral dopamine (DA) and norepinephrine (NE) levels. Set-up: species or system Spontaneously hypertensive rats. As to conditions: dosed twice about 18 hours apart, sacrificed about 2 hours after second dose, mean of 5 animals; for DA / NE: per gram of tissue. The procedure:
Various compounds of the invention were tested for their effects in vivo on peripheral dopamine (DA) and norepinephrine (NE) levels substantially by the procedure of DaPrada and Zurcher, Life Sci., 19, 1161, (1976). Spontaneously hypertensive rats were dosed twice, the second dose being abut 18 hours after the first, and were sacrificed about 2 hours after the second dose.

Data set [3] can be described thus: mean arterial blood pressure, indwelling cannulae in tail artery. The data set is classed as in vivo, Spontaneously hypertensive rats. The conditions noted are these: 50 mg/kg i.p. The method, then: Further, the same rats were dosed with a suspension or solution at a dose of 50 mg/kg of test compound i.p. and mean arterial blood pressure determined with indwelling cannulae inserted into the tail artery.

For data set [4] the following is noted: Teresawa et al., Japan, Cir. J. 35, 339 (1971); cited from earlier work.
The target of data set [5] is T1, dopamine-β-hydroxylase (DBH). As to the kind of experiment: in vitro DBH inhibition, conversion of tyramine to octopamine (absorbance at 330 nm). The data set is classed as biochemical. The conditions noted are these: read-out: DBH inhibition, % at 10^-4 M.
Setting [6] is: in vitro, tyramine to octopamine, read-out: IC50 value (molar concentration of compound at which DBH activity was halved).

Structures can show the parent of a compound that is named as a salt. Where two headings read alike, the source gives them in different places.

On to `NCc1nc2ccccc2n1Cc1ccccc1` [Example 37, 1-Benzyl-2-aminomethylbenzimidazole hydrochloride], for which the IC50 in data set [1] (setting [6]) was found to be 0.12 µM.

Consider `Fc1cc(F)cc(Cn2c(S)nc3ccccc32)c1` [Example 6, 1-(3,5-difluorobenzyl)-2-mercaptobenzimidazole], for which, in data set [2], the “DA/NE Ratio” value is on record as 0.086, the DA came to 0.607 µg/g and the NE amounted to 7.054 µg/g. Further, the mean arterial pressure result in data set [3] is reported as “significant reduction in mean arterial pressure”. In addition, in data set [1] (setting [6]), the IC50 stood at 6.2 µM.

As to `Oc1c(Cl)cc(Cn2c(S)nc3ccccc32)cc1Cl` [Example 8, 1-(3,5-dichloro-4-hydroxybenzyl)-2-mercaptobenzimidazole], in data set [1] (setting [6]), the IC50 worked out at 3.8 µM. On the same count and under the same terms, as for `Oc1c(F)cc(Cn2c(S)nc3ccccc32)cc1F` [Example 9, 1-(3,5-difluoro-4-hydroxybenzyl)-2-mercaptobenzimidazole], the figure is 0.66 µM; as for `NCc1nc2ccccc2n1Cc1cccc(F)c1` [Example 39, 1-[3-fluorobenzyl]-2-aminomethylbenzimidazole dihydrofluoride], 130 µM. Turning to `CCCCc1ccc(C(=O)O)nc1` [fusaric acid, reference compound], in data set [4], the hepatotoxicity result is listed as “hepatotoxic”. Further, the IC50 in data set [1] was around 0.8 µM.

As to `Sc1nc2ccccc2n1Cc1cc(Cl)cc(Cl)c1` [Example 4, 1-(3,5-dichlorobenzyl)-2-mercaptobenzimidazole], the inhibition at 100 µM in data set [5] came to 70%.

For `COc1c(F)cc(Cn2c(S)nc3ccccc32)cc1F` [Example 3, 1-(3,5-difluoro-4-methoxybenzyl)-2-mercaptobenzimidazole], in data set [2], the “DA/NE Ratio” value was 0.055, the DA is 0.397 µg/g and the NE was 7.82 µg/g. In the case of `Sc1nc2ccccc2n1Cc1c(Cl)cccc1Cl` [Example 2, 1-(2,6-dichlorobenzyl)-2-mercaptobenzimidazole], the inhibition at 100 µM in data set [5] was found to be 60%. Consider `NCc1nc2ccccc2n1Cc1ccc(Cl)c(Cl)c1` [Example 38, 1-[3,4-Dichlorobenzyl]-2-aminomethylbenzimidazole dihydrochloride], for which, in data set [1] (setting [6]), the IC50 came out at 69 µM. Turning to `COc1ccc(Cn2c(S)nc3ccccc32)cc1` [Example 7, 1-(4-methoxybenzyl)-2-mercaptobenzimidazole], the inhibition at 100 µM in data set [5] is 6%. `Oc1ccc(Cn2c(S)nc3ccccc32)cc1` [Example 10, 1-(4-hydroxybenzyl)-2-mercaptobenzimidazole]: in data set [1] (setting [6]), the IC50 was 13 µM. On to `NCc1nc2ccccc2n1Cc1cccc(Cl)c1` [Example 40, 1-[3-chlorobenzyl]-2-aminomethylbenzimidazole dihydrochloride], for which the IC50 in data set [1] (setting [6]) was 113 µM. On the same count and under the same terms, the figure for `Sc1nc2ccccc2n1Cc1ccccc1` [Example 5, N-benzyl-2-mercaptobenzimidazole] is 61 µM.
